Test results published in PubChem BioAssay (NCI).
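A five-concentration, 48-hour dose response in 96-well plates underlies each endpoint, interpolated linearly between surrounding concentrations. TGI: total growth inhibition.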

How the values were obtained:
Test in all cases: DTP human tumour cell line panel, 48 h
[1] = test system: NCI-H23 lung
[2] = test system: M19-MEL melanoma
[3] = test system: IGROV1 ovarian
[4] = test system: UO-31 renal
[5] = test system: OVCAR-8 ovarian
[6] = test system: RXF-631 renal
[7] = test system: HOP-62 NSCLC
[8] = test system: SK-MEL-5 melanoma
[9] = test system: UACC-62 melanoma
[10] = test system: A498 renal
[11] = test system: HCC-2998 colon
[12] = test system: U251 CNS
[13] = test system: TK-10 renal
[14] = test system: SF-268 CNS
[15] = test system: OVCAR-4 ovarian
[16] = test system: SF-539 CNS
[17] = test system: KM12 colon
[18] = test system: M14 melanoma
[19] = test system: HOP-92 NSCLC
[20] = test system: SN12C renal
[21] = test system: HOP-18 NSCLC
[22] = test system: SNB-78 CNS
[23] = test system: DMS 273 small cell lung
[24] = test system: HCT-116 colon
[25] = test system: SNB-19 CNS
[26] = test system: SF-295 CNS
[27] = test system: COLO 205 colon
[28] = test system: ACHN renal
[29] = test system: SK-OV-3 ovarian
[30] = test system: SK-MEL-28 melanoma
[31] = test system: LOX IMVI melanoma
[32] = test system: KM20L2 colon
[33] = test system: RXF 393 renal
[34] = test system: EKVX NSCLC
[35] = test system: NCI-H460 lung
[36] = test system: K-562 leukemia
[37] = test system: DMS 114 small cell lung
[38] = test system: SNB-75 CNS
[39] = test system: HT29 colon
[40] = test system: OVCAR-3 ovarian
[41] = test system: XF 498 CNS
[42] = test system: 786-0 renal
[43] = test system: DLD-1 colon
[44] = test system: CCRF-CEM leukemia
[45] = test system: HCT-15 colon
[46] = test system: NCI-H226 lung
[47] = test system: UACC-257 melanoma
[48] = test system: MOLT-4 leukemia
[49] = test system: MALME-3M melanoma
[50] = test system: A549 NSCLC
[51] = test system: HL-60(TB) leukemia
[52] = test system: SW-620 colon
[53] = test system: NCI-H522 lung
[54] = test system: SK-MEL-2 melanoma
[55] = test system: RPMI-8226 leukemia
[56] = test system: CAKI-1 renal
[57] = test system: OVCAR-5 ovarian
[58] = test system: LXFL 529 NSCLC

Measured: TGI

NC1CCC[C@H]1O (stereo partly drawn)
> 100 µM: [1] | [2] | [3] | [4] | [5] | [6] | [7] | [8] | [9] | [10] | [11] | [12] | [13] | [14] | [15] | [16] | [17] | [18] | [19] | [20] | [21] | [22] | [23] | [24] | [25] | [26] | [27] | [28] | [29] | [30] | [31] | [32] | [33] | [34] | [35] | [36] | [37] | [38] | [39] | [40] | [41] | [42] | [43] | [44] | [45] | [46] | [47] | [48] | [49] | [50] | [51] | [52] | [53] | [54] | [55]

C[C@]12Cc3cn[nH]c3C(=O)C1CC[C@@H]1C2CC[C@@]2(C)C1CC[C@]2(C)O (stereo partly drawn)
> 100 µM: [1] | [2] | [3] | [4] | [5] | [6] | [7] | [8] | [9] | [10] | [11] | [12] | [13] | [14] | [15] | [16] | [17] | [18] | [19] | [20] | [21] | [22] | [23] | [24] | [25] | [26] | [27] | [28] | [29] | [30] | [31] | [32] | [33] | [56] | [34] | [35] | [36] | [37] | [38] | [39] | [40] | [41] | [42] | [43] | [44] | [45] | [46] | [47] | [48] | [49] | [50] | [51] | [57] | [52] | [53] | [54] | [55] | [58]
